Laboratory results: patent US8999982B2, “Pharmaceutically active compounds as Axl inhibitors” (Lead Discovery Center GmbH, priority 2010, dated 2015)

Columns and labels:
Axl [1] = target: T1, Axl (Homo sapiens (Human), UniProt P30530); test: Axl binding assay
Experimental: Binding of the tracer to the kinase is detected using an EU-labeled anti-tag antibody. […] Binding of an inhibitor to the kinase competes for binding with the tracer, resulting in a loss of FRET-signal. At first a compound according to formula (I) was diluted in 20 mM Hepes pH 8.0, 1 mM DTT, 10 mM MgCl2 and 0.01% Brij35.

Axl [2] = target: T1, Axl; test: Cellular Axl phosphorylation assay; assay type: cell-based; details: HEK293 cells transfected with Axl cDNA, 1 hour incubation
Experimental: 3. Cellular Axl Phosphorylation Assay:
HEK293 embryonal kidney fibroblasts were transfected in 96 wells with a plasmid containing Axl cDNA. As transfection reagent Superfect (Qiagen) was used. Transfection of the sole vector backbone served as negative control of Axl expression. After overnight incubation the cellular supernatant was replaced with fresh medium. On the following day the Axl-expressing cells were incubated for 1 hour with a compound according to formula (I) at the suitable concentrations. […] The mesoscale technology was used for quantification.

T1 sequence (P30530 26-894): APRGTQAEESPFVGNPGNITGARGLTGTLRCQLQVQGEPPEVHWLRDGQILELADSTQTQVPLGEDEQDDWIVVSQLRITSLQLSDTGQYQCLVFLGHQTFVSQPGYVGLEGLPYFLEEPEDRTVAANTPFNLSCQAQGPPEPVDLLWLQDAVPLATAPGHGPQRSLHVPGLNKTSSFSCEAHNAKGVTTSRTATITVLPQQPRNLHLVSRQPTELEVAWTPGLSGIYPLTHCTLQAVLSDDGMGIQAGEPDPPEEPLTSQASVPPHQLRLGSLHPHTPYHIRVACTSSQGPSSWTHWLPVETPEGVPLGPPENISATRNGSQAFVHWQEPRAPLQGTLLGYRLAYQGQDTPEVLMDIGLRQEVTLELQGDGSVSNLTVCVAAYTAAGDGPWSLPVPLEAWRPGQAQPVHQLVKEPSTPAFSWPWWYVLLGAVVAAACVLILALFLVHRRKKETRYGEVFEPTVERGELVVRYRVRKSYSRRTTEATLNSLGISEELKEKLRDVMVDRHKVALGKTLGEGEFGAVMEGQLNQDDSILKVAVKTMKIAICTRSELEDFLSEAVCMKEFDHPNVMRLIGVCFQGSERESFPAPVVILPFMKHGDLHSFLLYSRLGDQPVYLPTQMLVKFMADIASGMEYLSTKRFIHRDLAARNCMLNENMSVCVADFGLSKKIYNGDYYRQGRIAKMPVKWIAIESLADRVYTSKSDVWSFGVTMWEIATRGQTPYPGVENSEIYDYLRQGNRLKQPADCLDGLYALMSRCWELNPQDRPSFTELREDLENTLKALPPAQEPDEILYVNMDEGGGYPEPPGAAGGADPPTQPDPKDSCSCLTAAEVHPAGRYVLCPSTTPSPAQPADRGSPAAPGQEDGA

Row | SMILES | IC50 (Axl [1]) | IC50 (Axl [2])
1 | COc1cc2nccc(Oc3ccc(NC(=O)c4cc(C)n(C)n4)cc3F)c2cc1OC [Example 1, N-[4-[(6,7-dimethoxy-4-quinolyl)oxy]-3-fluoro-phenyl]-1,5-dimethyl-pyrazole-3-carboxamide] | 500 to 5000 nM | 500 to 5000 nM
2 | COc1cc2nccc(Oc3ccc(NC(=O)c4nn(C)cc4Br)cc3F)c2cc1OC [Example 3, 4-bromo-N-[4-[(6,7-dimethoxy-4-quinolyl)oxy]-3-fluoro-phenyl]-1-methyl-pyrazole-3-carboxamide] | 500 to 5000 nM | 500 to 5000 nM
3 | CCOc1cn(-c2ccc([N+](=O)[O-])cc2)nc1C(=O)Nc1ccc(Oc2ccnc3cc(OC)c(OC)cc23)cn1 [Example 98, N-(5-((6,7-dimethoxyquinolin-4-yl)oxy)pyridin-2-yl)-4-ethoxy-1-(4-nitrophenyl)-1H-pyrazole-3-carboxamide] | 500 to 5000 nM | < 500 nM
4 | COc1cc2nccc(Oc3ccc(NC(=O)c4nn(-c5ccc(F)cc5)cc4CCN(C)C)nc3)c2cc1OC [Example 87, N-[5-[(6,7-dimethoxy-4-quinolyl)oxy]-2-pyridyl]-4-(2-dimethylaminoethyl)-1-(4-fluorophenyl)pyrazole-3-carboxamide] | 500 to 5000 nM | < 500 nM
5 | COc1cc2nccc(Oc3ccc(NC(=O)c4nn(-c5ccc(F)cc5)cc4OCCCN(C)C)cc3F)c2cc1OC [Example 20, N-[4-[(6,7-dimethoxy-4-quinolyl)oxy]-3-fluoro-phenyl]-4-(3-dimethylaminopropoxy)-1-(4-fluorophenyl)pyrazole-3-carboxamide] | 500 to 5000 nM | 500 to 5000 nM
6 | CCOc1cn(-c2ccc(F)cc2)nc1C(=O)Nc1ccc(Oc2ccnc3cc(OCCCN4CCN(C)CC4)c(OC)cc23)c(F)c1 [Example 58, 4-ethoxy-N-[3-fluoro-4-[[6-methoxy-7-[3-(4-methylpiperazin-1-yl)propoxy]-4-quinolyl]oxy]phenyl]-1-(4-fluorophenyl)pyrazole-3-carboxamide] | < 500 nM | < 500 nM
7 | CCOc1cn(-c2ccc(F)cc2C)nc1C(=O)Nc1ccc(Oc2ccnc3cc(OC)c(OC)cc23)cc1OC [Example 94, N-(4-((6,7-dimethoxyquinolin-4-yl)oxy)-2-methoxyphenyl)-4-ethoxy-1-(4-fluoro-2-methylphenyl)-1H-pyrazole-3-carboxamide] | < 500 nM | < 500 nM
8 | CCOc1cn(-c2ccc(F)cc2Cl)nc1C(=O)Nc1ccc(Oc2ccnc3cc(OCCCN4CCNCC4)c(OC)cc23)c(F)c1 [Example 68, 1-(2-chloro-4-fluoro-phenyl)-4-ethoxy-N-[3-fluoro-4-[[6-methoxy-7-(3-piperazin-1-ylpropoxy)-4-quinolyl]oxy]phenyl]pyrazole-3-carboxamide] | < 500 nM | < 500 nM
9 | COc1cc2c(Oc3ccc(NC(=O)c4cc(C)n(C)n4)cc3F)ccnc2cc1OCCCN1CCOCC1 [Example 42, N-[3-fluoro-4-[[6-methoxy-7-(3-morpholinopropoxy)-4-quinolyl]oxy]phenyl]-1,5-dimethyl-pyrazole-3-carboxamide] | < 500 nM | < 500 nM
10 | COc1cc2nccc(Oc3ccc(NC(=O)c4csc(-c5ccccc5)n4)cc3F)c2cc1OC [Example 10, N-[4-[(6,7-dimethoxy-4-quinolyl)oxy]-3-fluoro-phenyl]-2-phenyl-thiazole-4-carboxamide] | 500 to 5000 nM | 500 to 5000 nM
11 | CCOc1oc(-c2ccc(F)cc2)nc1C(=O)Nc1ccc(Oc2ccnc3cc(OCCCN)c(OC)cc23)c(F)c1 [Example 56, N-[4-[[7-(3-aminopropoxy)-6-methoxy-4-quinolyl]oxy]-3-fluoro-phenyl]-5-ethoxy-2-(4-fluorophenyl)oxazole-4-carboxamide] | < 500 nM | < 500 nM
12 | COc1cc2nccc(Oc3ccc(NC(=O)c4nn(-c5ccc(F)cc5)cc4OC)cc3F)c2cc1OC [Example 17, N-[4-[(6,7-dimethoxy-4-quinolyl)oxy]-3-fluoro-phenyl]-1-(4-fluorophenyl)-4-methoxy-pyrazole-3-carboxamide] | < 500 nM | < 500 nM
13 | CCOc1cn(-c2ccc(F)cc2C)nc1C(=O)Nc1ccc(Oc2ccnc3cc(OC)c(OC)cc23)cn1 [Example 85, N-[5-[(6,7-dimethoxy-4-quinolyl)oxy]-2-pyridyl]-4-ethoxy-1-(4-fluoro-2-methyl-phenyl)pyrazole-3-carboxamide] | < 500 nM | < 500 nM

Now from value to compound:

Row | IC50 (Axl [1]) | IC50 (Axl [2]) | SMILES
14 | < 500 nM | 500 to 5000 nM | CCOc1cn(-c2ccc(F)cc2C)nc1C(=O)Nc1ccc(Oc2ccnc3cc(OC)c(OC)cc23)cc1C [Example 95, N-(4-((6,7-dimethoxyquinolin-4-yl)oxy)-2-methylphenyl)-4-ethoxy-1-(4-fluoro-2-methylphenyl)-1H-pyrazole-3-carboxamide]
15 | < 500 nM | < 500 nM | COc1cc2c(Oc3ccc(NC(=O)c4nn(-c5ccc(F)cc5)cc4N)cc3F)ccnc2cc1OCCCN1CCOCC1 [Example 53, 4-amino-N-[3-fluoro-4-[[6-methoxy-7-(3-morpholinopropoxy)-4-quinolyl]oxy]phenyl]-1-(4-fluorophenyl)pyrazole-3-carboxamide]
16 | < 500 nM | < 500 nM | COc1cc2c(Oc3ccc(NC(=O)c4nn(-c5ccc(F)cc5)cc4OC(C)C)cc3F)ccnc2cc1OCCCN1CCOCC1 [Example 45, N-[3-fluoro-4-[[6-methoxy-7-(3-morpholinopropoxy)-4-quinolyl]oxy]phenyl]-1-(4-fluorophenyl)-4-isopropoxy-pyrazole-3-carboxamide]
17 | < 500 nM | < 500 nM | CCOc1cn(-c2ccc(F)cc2C)nc1C(=O)Nc1ccc(Oc2ccnc3cc(OC)c(OC)cc23)c(Cl)c1 [Example 35, N-[3-chloro-4-[(6,7-dimethoxy-4-quinolyl)oxy]phenyl]-4-ethoxy-1-(4-fluoro-2-methyl-phenyl)pyrazole-3-carboxamide]
18 | < 500 nM | < 500 nM | COc1cc2nccc(Oc3ccc(NC(=O)c4nn(-c5ccc(F)cc5)cc4OC(C)C)cc3Cl)c2cc1OC [Example 33, N-[3-chloro-4-[(6,7-dimethoxy-4-quinolyl)oxy]phenyl]-1-(4-fluorophenyl)-4-isopropoxy-pyrazole-3-carboxamide]
19 | < 500 nM | < 500 nM | CCOc1cn(-c2ccc(F)cc2CCN(C)C)nc1C(=O)Nc1ccc(Oc2ccnc3cc(OC)c(OC)cc23)c(F)c1 [Example 37, N-[4-[(6,7-dimethoxy-4-quinolyl)oxy]-3-fluoro-phenyl]-1-[2-(2-dimethylaminoethyl)-4-fluoro-phenyl]-4-ethoxy-pyrazole-3-carboxamide]
20 | < 500 nM | < 500 nM | COc1cc2nccc(Oc3ccc(NC(=O)c4nn(-c5ccc(F)cc5)cc4OCC4CC4)cc3C)c2cc1OC [Example 30, 4-(cyclopropylmethoxy)-N-[4-[(6,7-dimethoxy-4-quinolyl)oxy]-3-methyl-phenyl]-1-(4-fluorophenyl)pyrazole-3-carboxamide]
21 | < 500 nM | < 500 nM | CCOc1cn(-c2ccc(F)cc2Cl)nc1C(=O)Nc1ccc(Oc2ccnc3cc(OC)c(OC)cc23)c(F)c1 [Example 23, 1-(2-chloro-4-fluoro-phenyl)-N-[4-[(6,7-dimethoxy-4-quinolyl)oxy]-3-fluoro-phenyl]-4-ethoxy-pyrazole-3-carboxamide]
22 | < 500 nM | < 500 nM | CCOc1cn(-c2ccc(F)cc2)nc1C(=O)Nc1ccc(Oc2ccnc3cc(OC)c(OC)cc23)c(C)c1 [Example 28, N-[4-[(6,7-dimethoxy-4-quinolyl)oxy]-3-methyl-phenyl]-4-ethoxy-1-(4-fluorophenyl)pyrazole-3-carboxamide]
23 | < 500 nM | < 500 nM | COc1cc2nccc(Oc3ccc(NC(=O)c4nn(-c5ccc(F)cc5)cc4OCCN(C)C)cc3F)c2cc1OC [Example 19, N-[4-[(6,7-dimethoxy-4-quinolyl)oxy]-3-fluoro-phenyl]-4-(2-dimethylaminoethoxy)-1-(4-fluorophenyl)pyrazole-3-carboxamide]
24 | < 500 nM | < 500 nM | COc1cc2c(Oc3ccc(NC(=O)c4cc(C)n(C(C)(C)C)n4)cc3F)ccnc2cc1OCCCN1CCOCC1 [Example 41, 1-tert-butyl-N-[3-fluoro-4-[[6-methoxy-7-(3-morpholinopropoxy)-4-quinolyl]oxy]phenyl]-5-methyl-pyrazole-3-carboxamide]
25 | < 500 nM | < 500 nM | CCOc1cn(-c2ccc(F)cc2)nc1C(=O)Nc1ccc(Oc2ccnc3cc(OC)c(OC)cc23)cc1 [Example 24, N-[4-[(6,7-dimethoxy-4-quinolyl)oxy]phenyl]-4-ethoxy-1-(4-fluorophenyl)pyrazole-3-carboxamide]
26 | < 500 nM | < 500 nM | CCOc1cn(-c2cccc([N+](=O)[O-])c2)nc1C(=O)Nc1ccc(Oc2ccnc3cc(OC)c(OC)cc23)c(F)c1 [Example 90, N-(4-((6,7-dimethoxyquinolin-4-yl)oxy)-3-fluorophenyl)-4-ethoxy-1-(3-nitrophenyl)-1H-pyrazole-3-carboxamide]
27 | < 500 nM | < 500 nM | CCOc1cn(-c2ccc(F)cc2)nc1C(=O)Nc1ccc(Oc2ccnc3cc(OC)c(OC)cc23)cn1 [Example 84, N-[5-[(6,7-dimethoxy-4-quinolyl)oxy]-2-pyridyl]-4-ethoxy-1-(4-fluorophenyl)pyrazole-3-carboxamide]
28 | < 500 nM | < 500 nM | COc1cc2c(Oc3ccc(NC(=O)c4csc(-c5ccccc5)n4)cc3F)ccnc2cc1OCCCN1CCNCC1 [Example 72, N-[3-fluoro-4-[[6-methoxy-7-(3-piperazin-1-ylpropoxy)-4-quinolyl]oxy]phenyl]-2-phenyl-thiazole-4-carboxamide]
